The values that follow come from the supplement of paper PMC11061612.

In assay [1] the test system is SK-N-FI (Neuroblastoma). As to the kind of experiment: Bliss excess, mean over the matrix (fraction); higher = more synergy. A digest of the protocol:
(§1)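 Cell lines grown in DMEM/F12 or RPMI with 10% FBS were plated in 1536-well plates and held 24 hours at 37°C, 5% CO2 before 72 hours of exposure to two-drug dose matrices, with DMSO typically at 0.2%. CellTiter-Glo 2.0 luminescence gave viability, which was converted to inhibition. Vehicle wells were set to 0 and blank wells to 1. Combination Emax is the second-highest inhibition in the matrix, and Bliss excess is the observed combination effect minus the expected EA + EB − EA·EB, where EA and EB are the single-agent effects.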

The test system of assay [2] is BB49-HNC (Head and Neck Carcinoma). The assay is described as above. A digest of the protocol: as §1
In assay [3] the test system is U-266 (Plasma Cell Myeloma). The assay is described as above. A digest of the protocol: as §1
The test system of assay [4] is NB(TU)1-10 (Neuroblastoma). The assay is described as above. A digest of the protocol: as §1
Assay [5] relates to NCI-H211 (Small Cell Lung Carcinoma). The description is as above. In short, it runs like this:
as §1

For assay [6], the system named is BB49-HNC (Head and Neck Carcinoma). As to the kind of experiment: combination Emax (second highest fraction inhibited in the dose matrix, 72 h); higher = more inhibition; extreme values may be limits of the assay. A digest of the protocol: as §1
The subject of assay [7] is NB(TU)1-10 (Neuroblastoma). The assay is described as above. In short, it runs like this: as §1
For assay [8], the system named is NCI-H211 (Small Cell Lung Carcinoma). The assay is described as above. In short, it runs like this: as §1

Structures are written as SMILES.
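Wherever Bliss excess, mean over the matrix is given: after 72 h of two-drug dosing.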

In the case of `C=CCn1c(=O)c2cnc(Nc3ccc(N4CCN(C)CC4)cc3)nc2n1-c1cccc(C(C)(C)O)n1` [AZD1775] + C1CN(CCC1(C(=O)N[C@@H](CCO)C2=CC=C(C=C2)Cl)N)C3=NC=NC4=C3C=CN4 [Capivasertib] (first compound max 3 µM, partner max 3 µM), the Bliss excess is -0.0442 in assay [1]; -0.0204 in assay [2]; -0.0704 in assay [3]; -0.0584 in assay [4]; -0.0643 in assay [5]. For the same compound, the “combination Emax” value in assay [6] worked out at 0.936; in assay [7], 0.583; in assay [8] it was 0.901.
